Measured values reported in patent US20220185793A1, “COMPOUNDS FOR THE TREATMENT OF ONCOVIRUS INDUCED CANCER AND METHODS OF USE THEREOF” (Cellestia Biotech AG, priority 2019, published 2022).

How the values were obtained:
[1] = system: EBV positive human B HG-3 cells; test: PrestoBlue proliferation assay in HG-3 cells; format: cell-based; details: 72 hours; for IC50: Homo sapiens, concentration range 0.03-100 μM, PrestoBlue assay, read-out: Anti-proliferative IC50 values (μM) in HG-3 cells; for anti-proliferative effect on HG-3 cells (in words): PrestoBlue, FIG. 2 and Table 4
Procedure: (§1) One million human EBV positive lymphoma cell lines HG3 and LCL070903 (Rosén et al., 2012) were cultured in RPMI1640 media supplemented with 10% FCS. […] Following treatment cells were harvested and washed with 1× PBS. Total RNA was extracted as described below.
(§2) Alamarblue® and PrestoBlue proliferation assays were performed to determine the growth kinetics of EBV inhibitor treated cells. Alamar blue® and PrestoBlue consists of a cell permeable substrate resazurin. In metabolically active and proliferating cells, resazurin is converted to resorufin due to an intrinsic reducing power of live cells and produces a red fluorescence. Therefore production of resorufin serves as an indicator of the viability of the cell population.
(§3) Proliferation assays were performed by seeding 5000 cells/well in a 96 well plate. […] Each concentration was tested in 4 replicates. To determine the growth kinetics, 10 μl of Alamar blue® or PrestoBlue (Invitrogen) was added to each well and incubated for 4 hours. Readout was taken using Tecan F500 (Tecan) multiplate reader or Varioskan LUX (ThermoFisher) multiplate reader.
In brief, HG-3 cells were plated in a 96 well plate and treated with an increasing concentration of compounds.

[2] = system: NOTCH target gene HES1; test: NOTCH target gene HES1 downregulation in RPMI 8402 cells; format: cell-based, human; set-up: Percentage inhibition of NOTCH target gene HES1: concentration or dose not given beside the values; details: RPMI 8402 cells (NOTCH1 positive, EBV negative)
Procedure: (§4) Total RNA was extracted from cells using TRIzol® extraction kit (Invitrogen). Briefly, 1×10^6 cells were washed with ice-cold 1× PBS and lysed in 1 ml of TRIzol® solution for 5 minutes at room temperature to dissociate nucleoprotein complexes. Lysed cells were then treated with 200 μl of chloroform and shaked vigorously for 15-30 seconds and incubated at room temperature for 2-3 minutes. The samples were centrifuged at 14000 rpm using Eppendorf table top centrifuge for 10 minutes at 4° C. Following centrifugation, upper aqueous phase was transferred to new eppendorf tubes. To precipitate total RNA 500 μl of […] was added to the separated aqueous phase and incubated at room temperature for 10 minutes. A RNA pellet was obtained by centrifuging the samples at 4° C. for 10 minutes. RNA pellet obtained was washed with 1 ml ice cold 75% ethanol and spun down at 14000 rpm at 4° C. RNA pellet was dried off of excess of ethanol and resuspended in 40 IA DPEC water.
(§5) Total RNA extracted from the cell was used to synthesize cDNA by reverse transcription reaction. Reverse transcription was performed according to one of the two following protocols.
(§6) QRT-PCR was carried out using 7900 HT Fast Real-Time PCR system (Applied Biosystems) or QuantStudio 3 system (ThermoFisher). Briefly, 12.5 ng of template cDNA was used with a primer concentration of 0.5 μM each and lx SYBR Green dye in a final volume of 10 μL in a 96 well or 384 well plate format.
(§7) To determine the ability of compounds to downregulate EBV driven gene expression, HG-3 cells were treated with selected compounds and percentage inhibition of EBV target genes was determined by quantitative PCR. […] To further determine the anti-oncoviral specificity of compounds, these compounds were tested for their ability to downregulate a NOTCH target gene HES1 in a NOTCH1 positive (EBV negative) human leukemic cell line RPMI8402.

[3] = system: BMI1 (EBV target gene); test: EBV target gene downregulation (qPCR) in HG-3 cells: BMI1; format: cell-based, human; details: 48 hours; for inhibition at 10 µM: Homo sapiens, mRNA by qPCR, Table 5; for potency in downregulating EBV pathway (BMI1) compared with 6-(4-tert-butylphenoxy)pyridin-3-amine (in words): 10 μM, qRT-PCR, FIG. 4
Procedure: EBV positive human B HG-3 cells were treated with 10 μM of the mentioned compounds for 48 hours. Following treatment, total RNA was extracted and mRNA expression analysed by qRT-PCR.
(§8) One million human EBV positive lymphoma cell lines HG3 and LCL070903 (Rosén et al., 2012) were cultured in RPMI1640 media supplemented with 10% FCS. For RNA expression analysis cells were treated with compounds at 10 μM concentration and for proliferation assay cells were treated at a concentration range of 0.01-100 μM. Following treatment cells were harvested and washed with 1× PBS. Total RNA was extracted as described below.
as §4, §5
(§9) In first protocol, SuperScript™ RT (Invitrogen) was used for reverse transcription reaction. RNA concentration was measured using NanoDrop®ND-1000 spectrophotometer (Witec AG) and 500 ng of total RNA was mixed with a 10 mM mix of dNTPs and 100 ng of random primers. The reaction mix was incubated at 65° C. for 5 minutes and quickly incubated on ice for 1 minute. Following incubation on ice, 5× first strand buffer and 0.1M DTT were added and mix was incubated for 2 minutes at 25° C. To start the reverse transcription reaction, 200U of SuperScrip™ II RT was added to the reaction mix and incubated at 42° C. for 50 minutes. The reaction was stopped by incubating the reaction mix at 75° C. for 15 minutes.
(§10) In second protocol, reverse transcription was performed using PrimeScript RT Master Mix (Takara). RNA concentration was measured using NanoDrop®ND-1000 spectrophotometer (Witec AG) and 1 μg of total RNA was mixed with 4 μL 5X PrimeScript RT Master Mix in a total reaction volume of 20 μL. The reaction mix was incubated at 37° C. for 15 minutes followed by heat inactivation at 85° C. for 5 seconds.
as §6
(§11) Upon infection of human cells, EBV is known to induce cancerous transformation of cells via upregulation of host as well as viral genes (e.g LMP1, EBNA2, BATF1, BMI1 and CD21). To determine the ability of compounds to downregulate EBV driven gene expression, HG-3 and LCL070903 cells were treated with selected compounds and percentage inhibition of EBV target genes was determined by quantitative PCR. As shown in Table 5 and Table 6, compounds down regulate EBV target genes such as BMI1 in HG-3 and LCL070903 cells, respectively (FIGS. 3 and 4).

[4] = system: BMI1 (EBV target gene); test: EBV target gene downregulation (qPCR) in LCL070903 cells: BMI1; format: cell-based, human; details: 48 hours; for inhibition at 10 µM: Homo sapiens, mRNA by qPCR, Table 6; for potency in downregulating EBV pathway (BMI1) compared with 6-(4-tert-butylphenoxy)pyridin-3-amine (in words): 10 μM, qRT-PCR, FIG. 3
Procedure: EBV positive human B LCL070903 cells were treated with 10 μM of the mentioned compounds for 48 hours. Following treatment, total RNA was extracted and mRNA expression analysed by qRT-PCR.
as §8, §4, §5, §9, §10, §6, §11

[5] = system: EBV positive human lymphoma HG-3 cells; test: Alamar blue proliferation assay in HG-3 cells; format: cell-based; details: 72 hours; for IC50: Homo sapiens, concentration range 0.01-10 μM, Alamar blue assay, read-out: Anti-proliferative IC50 values; for anti-proliferative effect on HG-3 cells (in words): Alamar blue, FIG. 1 and Table 1
Procedure: as §1, §2, §3
In order to determine anti-cancer activity of compounds in oncoviral driven cells, an EBV infected human Chronic Lymphocytic Leukemia cell line HG-3 was used (Rosen et al., 2012). In brief, HG-3 cells were plated in a 96 well plate and treated with an increasing concentration of compounds.

[6] = system: LMP1; test: EBV target gene downregulation (qPCR) in HG-3 cells: LMP1; format: cell-based; details: Homo sapiens, mRNA by qPCR, Table 2
Procedure: as §8, §4, §5, §9
(§12) In second protocol, reverse transcription was performed using PrimeScript RT Master Mix (Takara). RNA concentration was measured using NanoDrop®ND-1000 spectrophotometer (Witec AG) and 1 μg of total RNA was mixed with 4 μL 5X PrimeScript RT Master Mix in a total reaction volume of 20 μL. […]
(§13) To determine the ability of compounds to downregulate EBV driven gene expression, HG-3 cells were treated with selected compounds and percentage inhibition of EBV target genes was determined by quantitative PCR. […]

[7] = system: RUNX3; test: EBV target gene downregulation (qPCR) in HG-3 cells: RUNX3; format: cell-based; details: Homo sapiens, mRNA by qPCR, Table 2
Procedure: as §8, §4, §5, §9, §12, §13

[8] = system: EBNA2; test: EBV target gene downregulation (qPCR) in HG-3 cells: EBNA2; format: cell-based; details: Homo sapiens, mRNA by qPCR, Table 5
Procedure: as §8, §4, §5, §9, §10, §6, §7, §11

[9] = system: EBNA2; test: EBV target gene downregulation (qPCR) in LCL070903 cells: EBNA2; format: cell-based; details: Homo sapiens, mRNA by qPCR, Table 6
Procedure: as §8, §4, §5, §9, §10, §6, §11

SMILES	IC50 [1] [µM]	Percentage inhibition of NOTCH target gene HES1 [2] [%]	downregulation of NOTCH target gene HES1 (in words) [2]	inhibition at 10 µM [3] [%]	inhibition at 10 µM [4] [%]	IC50 [5] [µM]	inhibition at 10 µM [6] [%]	anti-proliferative effect on HG-3 cells (in words) [5]	inhibition at 10 µM [7] [%]	anti-proliferative effect on HG-3 cells (in words) [1]	potency in downregulating EBV pathway (BMI1) compared with 6-(4-tert-butylphenoxy)pyridin-3-amine (in words) [3]	potency in downregulating EBV pathway (BMI1) compared with 6-(4-tert-butylphenoxy)pyridin-3-amine (in words) [4]	inhibition at 10 µM [8] [%]	inhibition at 10 µM [9] [%]
CC(C)(C)c1ccc(Oc2ccc(N)cn2)cc1 [6-(4-tert-Butylphenoxy)pyridin-3-amine, reference compound]	> 10	80	effectively downregulates HES1	< 0	< 0	> 10	–	–	–	–	–	–	–	–
CC(C)(C)c1ccc(Oc2ccc(NCc3ccncc3)cn2)cc1 [Example 1, 6-(4-(tert-Butyl)phenoxy)-N-(pyridin-4-ylmethyl)pyridin-3-amine]	–	0	do not modulate expression of this gene	–	–	4	30	demonstrate anti-proliferative effect	27	–	–	–	–	–
CC(C)(C)c1ccc(Oc2ccc(NCc3c[nH]cn3)cn2)cc1 [Example 10, N-((1H-Imidazol-4-yl)methyl)-6-(4-(tert-butyl)phenoxy)pyridin-3-amine]	–	0	do not modulate expression of this gene	–	–	6.6	15	demonstrate anti-proliferative effect	37	–	–	–	–	–
Fc1cc(NCc2cccnc2)ccc1Oc1ccc(C2CCCCC2)cc1 [Example 19, 4-(4-Cyclohexylphenoxy)-3-fluoro-N-(pyridin-3-ylmethyl)aniline]	3.5	–	–	19	56	–	–	–	–	demonstrate anti-proliferative effect	enhanced potency	enhanced potency	36	19
c1ccc(-c2ccc(Oc3ccc(NCc4cccnc4)cn3)cc2)cc1 [Example 20, 6-([1,1r-Biphenyl]-4-yloxy)-N-(pyridin-3-ylmethyl)pyridin-3-amine]	0.3	–	–	35	44	–	–	–	–	demonstrate anti-proliferative effect	–	enhanced potency	–	27
Cc1nc(Oc2ccc(-c3ccccc3)cc2)ccc1NCc1cccnc1 [Example 23, 6-([1,1′-Biphenyl]-4-yloxy)-2-methyl-N-(pyridin-3-ylmethyl)pyridin-3-amine]	1.9	–	–	35	39	–	–	–	–	demonstrate anti-proliferative effect	enhanced potency	enhanced potency	1	1
Fc1ccc(-c2ccc(Oc3ccc(NCc4cccnc4)cn3)cc2)cc1 [Example 24, 6-((4′-Fluoro-[1,1′-biphenyl]-4-yl)oxy)-N-(pyridin-3-ylmethyl)pyridin-3-amine]	–	–	–	15	61	–	–	–	–	–	enhanced potency	enhanced potency	7	–
Fc1cc(NCc2cccnc2)ccc1Oc1ccc(-c2ccccn2)cc1 [Example 25, 3-Fluoro-4-(4-(pyridin-2-yl)phenoxy)-N-(pyridin-3-ylmethyl)aniline]	6.7	–	–	19	46	–	–	–	–	demonstrate anti-proliferative effect	enhanced potency	enhanced potency	1	–
Cc1ccccc1-c1ccc(Oc2ccc(NCc3cccnc3)cn2)cc1C [Example 29, 6-((2,2′-dimethyl-[1,1′-biphenyl]-4-yl)oxy)-N-(pyridin-3-ylmethyl)pyridin-3-amine]	2	–	–	28	72	–	–	–	–	demonstrate anti-proliferative effect	enhanced potency	enhanced potency	6	30
